Source: patent US10294202B2, “Pyrrolidinones as herbicides” (FMC Corporation, priority 2013, dated 2019)

Columns and labels:
Assay in all cases: Test D pre-/postemergence herbicide test
mustard, wild = type: in vivo, Sinapis arvensis; details: for Plant response rating: Mustard, Wild, scale 0 to 100; for Plant response rating, Mustard, Wild: scale 0 to 100 (0 no effect, 100 complete control)
From the text: (§1) Seeds of plant species selected from bluegrass (annual bluegrass, Poa annua), blackgrass (Alopecurus myosuroides), canarygrass (littleseed canarygrass, Phalaris minor), chickweed (common chickweed, Stellaria media), galium (catchweed bedstraw, Galium aparine), bromegrass, downy (downy bromegrass, Bromus tectorum), field poppy (Papaver rhoeas), field violet (Viola arvensis), foxtail, green (green foxtail, Setaria viridis), deadnettle (henbit deadnettle, Lamium amplexicaule), ryegrass, Italian (Italian ryegrass, Lolium multiflorum), kochia (Kochia scoparia), lambsquarters (Chenopodium album), oilseed rape (Brassica napus), pigweed (Amaranthus retroflexus), chamomile (scentless chamomile, Matricaria inodora), Russian thistle (Salsola kali), speedwell (bird's-eye speedwell, Veronica persica), barley, spring (spring barley, Hordeum vulgare), wheat, spring (spring wheat, Triticum aestivum), buckwheat, wild (wild buckwheat, Polygonum convolvulus), mustard, wild (wild mustard, Sinapis arvensis), oat, wild (wild oat, Avena fatua), radish, wild (wild radish, Raphanus raphanistrum), […]), barley, winter (winter barley, Hordeum vulgare), and wheat, winter (winter wheat, Triticum aestivum) were planted into a silt loam soil and treated preemergence with test chemicals formulated in a non-phytotoxic solvent mixture which included a surfactant. At the same time, these species were planted in pots containing Redi-Earth® planting medium (Scotts Company, 14111 Scottslawn Road, Marysville, Ohio 43041) comprising spaghnum peat moss, vermiculite, wetting agent and starter nutrients and treated with postemergence applications of the test chemicals formulated in the same manner. Plants ranged in height from 2 to 18 cm (1- to 4-leaf stage). Treated plants and controls were maintained in a controlled growth environment for 7 to 21 days after which time all species were compared to controls and visually evaluated. Plant response ratings, summarized in Table D, are based on a scale of 0 to 100 where 0 is no effect and 100 is complete control. A dash (-) response means no test result.

foxtail, green = type: in vivo, Setaria viridis; details: for Plant response rating: Foxtail, Green, scale 0 to 100; for Plant response rating, Foxtail, Green: scale 0 to 100 (0 no effect, 100 complete control)
From the text: as §1

barley, winter = type: in vivo, Hordeum vulgare; details: for Plant response rating: Barley, Winter, scale 0 to 100; for Plant response rating, Barley, Winter: scale 0 to 100 (0 no effect, 100 complete control)
From the text: as §1

barley, spring = type: in vivo, Hordeum vulgare; details: for Plant response rating: Barley, Spring, scale 0 to 100; for Plant response rating, Barley, Spring: scale 0 to 100 (0 no effect, 100 complete control)
From the text: as §1

Compound `O=C1NCC(c2ccc(F)c(F)c2)C1C(=O)Nc1ccccc1C(F)(F)F` (racemic) [Compound 6] has a Plant response rating (mustard, wild; Postemergence, 16 g ai/ha) of 0, a Plant response rating (mustard, wild; Postemergence, 31 g ai/ha) of 0 and a Plant response rating (mustard, wild; Postemergence, 125 g ai/ha) of 0. For the same compound, the Plant response rating (mustard, wild; Postemergence, 250 g ai/ha) was 0, the “Plant response rating, Mustard, Wild” value (mustard, wild; Preemergence, 62 g ai/ha) was 0 and the “Plant response rating, Mustard, Wild” value (mustard, wild; Preemergence, 16 g ai/ha) was 0. For the same compound, the “Plant response rating, Mustard, Wild” value (mustard, wild; Preemergence, 31 g ai/ha) was 0, the Plant response rating (mustard, wild; Preemergence, 125 g ai/ha) was 10 and the Plant response rating (mustard, wild; Preemergence, 250 g ai/ha) was 20. It also gave a Plant response rating (foxtail, green; Postemergence, 16 g ai/ha) of 0, a Plant response rating (foxtail, green; Postemergence, 31 g ai/ha) of 0 and a Plant response rating (foxtail, green; Postemergence, 62 g ai/ha) of 0. For the same compound, the Plant response rating (foxtail, green; Postemergence, 125 g ai/ha) was 0, the Plant response rating (foxtail, green; Postemergence, 250 g ai/ha) was 20 and the “Plant response rating, Foxtail, Green” value (foxtail, green; Preemergence, 62 g ai/ha) was 0. The “Plant response rating, Foxtail, Green” value (foxtail, green; Preemergence, 16 g ai/ha) was 0, the “Plant response rating, Foxtail, Green” value (foxtail, green; Preemergence, 31 g ai/ha) was 0 and the Plant response rating (foxtail, green; Preemergence, 125 g ai/ha) was 0. The Plant response rating (foxtail, green; Preemergence, 250 g ai/ha) was 10, the Plant response rating (barley, winter; Postemergence, 16 g ai/ha) was 0 and the Plant response rating (barley, winter; Postemergence, 31 g ai/ha) was 0. For the same compound, the Plant response rating (barley, winter; Postemergence, 62 g ai/ha) was 0, the Plant response rating (barley, winter; Postemergence, 125 g ai/ha) was 0 and the Plant response rating (barley, winter; Postemergence, 250 g ai/ha) was 0. The “Plant response rating, Barley, Winter” value (barley, winter; Preemergence, 62 g ai/ha) was 0, the “Plant response rating, Barley, Winter” value (barley, winter; Preemergence, 16 g ai/ha) was 0 and the “Plant response rating, Barley, Winter” value (barley, winter; Preemergence, 31 g ai/ha) was 0. It also gave a Plant response rating (barley, winter; Preemergence, 125 g ai/ha) of 0, a Plant response rating (barley, winter; Preemergence, 250 g ai/ha) of 20 and a Plant response rating (barley, spring; Postemergence, 16 g ai/ha) of 0. It also gave a Plant response rating (barley, spring; Postemergence, 31 g ai/ha) of 0, a Plant response rating (barley, spring; Postemergence, 62 g ai/ha) of 0 and a Plant response rating (barley, spring; Postemergence, 125 g ai/ha) of 0. For the same compound, the Plant response rating (barley, spring; Postemergence, 250 g ai/ha) was 0, the “Plant response rating, Barley, Spring” value (barley, spring; Preemergence, 62 g ai/ha) was 0 and the “Plant response rating, Barley, Spring” value (barley, spring; Preemergence, 16 g ai/ha) was 0. The “Plant response rating, Barley, Spring” value (barley, spring; Preemergence, 31 g ai/ha) was 0, the Plant response rating (barley, spring; Preemergence, 125 g ai/ha) was 0 and the Plant response rating (barley, spring; Preemergence, 250 g ai/ha) was 10.

With `O=C1NCC(c2ccc(F)c(C(F)(F)F)c2)C1C(=O)Nc1cccc(F)c1F` (racemic) [Compound 77] the “Plant response rating, Mustard, Wild” value (mustard, wild; Preemergence, 62 g ai/ha) was 20, the “Plant response rating, Mustard, Wild” value (mustard, wild; Preemergence, 31 g ai/ha) was 0 and the Plant response rating (mustard, wild; Preemergence, 125 g ai/ha) was 25. For the same compound, the Plant response rating (mustard, wild; Preemergence, 250 g ai/ha) was 45, the “Plant response rating, Foxtail, Green” value (foxtail, green; Preemergence, 62 g ai/ha) was 80 and the “Plant response rating, Foxtail, Green” value (foxtail, green; Preemergence, 31 g ai/ha) was 15. The Plant response rating (foxtail, green; Preemergence, 125 g ai/ha) was 70, the Plant response rating (foxtail, green; Preemergence, 250 g ai/ha) was 85 and the “Plant response rating, Barley, Winter” value (barley, winter; Preemergence, 62 g ai/ha) was 0. The “Plant response rating, Barley, Winter” value (barley, winter; Preemergence, 31 g ai/ha) was 0, the Plant response rating (barley, winter; Preemergence, 125 g ai/ha) was 45 and the Plant response rating (barley, winter; Preemergence, 250 g ai/ha) was 55. For the same compound, the “Plant response rating, Barley, Spring” value (barley, spring; Preemergence, 62 g ai/ha) was 5, the “Plant response rating, Barley, Spring” value (barley, spring; Preemergence, 31 g ai/ha) was 5 and the Plant response rating (barley, spring; Preemergence, 125 g ai/ha) was 25. For the same compound, the Plant response rating (barley, spring; Preemergence, 250 g ai/ha) was 25.

In the case of `O=C1NCC(c2cc(F)c(F)cc2F)C1C(=O)Nc1cccc(F)c1F` (centres unmarked) [Compound 50], the Plant response rating (mustard, wild; Postemergence, 16 g ai/ha) is reported as 40, the Plant response rating (mustard, wild; Postemergence, 31 g ai/ha) is reported as 60 and the Plant response rating (mustard, wild; Postemergence, 125 g ai/ha) is reported as 40. For the same compound, the “Plant response rating, Mustard, Wild” value (mustard, wild; Preemergence, 62 g ai/ha) was 0, the “Plant response rating, Mustard, Wild” value (mustard, wild; Preemergence, 16 g ai/ha) was 50 and the Plant response rating (mustard, wild; Preemergence, 125 g ai/ha) was 80. It also gave a Plant response rating (foxtail, green; Postemergence, 16 g ai/ha) of 0, a Plant response rating (foxtail, green; Postemergence, 31 g ai/ha) of 0 and a Plant response rating (foxtail, green; Postemergence, 62 g ai/ha) of 0. The Plant response rating (foxtail, green; Postemergence, 125 g ai/ha) was 0, the “Plant response rating, Foxtail, Green” value (foxtail, green; Preemergence, 62 g ai/ha) was 50 and the “Plant response rating, Foxtail, Green” value (foxtail, green; Preemergence, 16 g ai/ha) was 0. The “Plant response rating, Foxtail, Green” value (foxtail, green; Preemergence, 31 g ai/ha) was 0, the Plant response rating (foxtail, green; Preemergence, 125 g ai/ha) was 40 and the Plant response rating (barley, winter; Postemergence, 16 g ai/ha) was 0. For the same compound, the Plant response rating (barley, winter; Postemergence, 31 g ai/ha) was 0, the Plant response rating (barley, winter; Postemergence, 62 g ai/ha) was 0 and the Plant response rating (barley, winter; Postemergence, 125 g ai/ha) was 0. For the same compound, the “Plant response rating, Barley, Winter” value (barley, winter; Preemergence, 62 g ai/ha) was 0, the “Plant response rating, Barley, Winter” value (barley, winter; Preemergence, 16 g ai/ha) was 0 and the “Plant response rating, Barley, Winter” value (barley, winter; Preemergence, 31 g ai/ha) was 0. The Plant response rating (barley, winter; Preemergence, 125 g ai/ha) was 0, the Plant response rating (barley, spring; Postemergence, 16 g ai/ha) was 0 and the Plant response rating (barley, spring; Postemergence, 31 g ai/ha) was 0. For the same compound, the Plant response rating (barley, spring; Postemergence, 62 g ai/ha) was 0, the Plant response rating (barley, spring; Postemergence, 125 g ai/ha) was 0 and the “Plant response rating, Barley, Spring” value (barley, spring; Preemergence, 62 g ai/ha) was 0. For the same compound, the “Plant response rating, Barley, Spring” value (barley, spring; Preemergence, 16 g ai/ha) was 0, the “Plant response rating, Barley, Spring” value (barley, spring; Preemergence, 31 g ai/ha) was 0 and the Plant response rating (barley, spring; Preemergence, 125 g ai/ha) was 0.

`O=C1NCC(c2ccc(Cl)c(F)c2)C1C(=O)Nc1cccc(F)c1F` (centres unmarked) [Compound 52] showed a Plant response rating (mustard, wild; Postemergence, 16 g ai/ha) of 0, a Plant response rating (mustard, wild; Postemergence, 31 g ai/ha) of 10 and a Plant response rating (mustard, wild; Postemergence, 62 g ai/ha) of 20. For the same compound, the Plant response rating (mustard, wild; Postemergence, 125 g ai/ha) was 20, the Plant response rating (mustard, wild; Postemergence, 250 g ai/ha) was 25 and the “Plant response rating, Mustard, Wild” value (mustard, wild; Preemergence, 62 g ai/ha) was 0. The “Plant response rating, Mustard, Wild” value (mustard, wild; Preemergence, 16 g ai/ha) was 0, the “Plant response rating, Mustard, Wild” value (mustard, wild; Preemergence, 31 g ai/ha) was 0 and the Plant response rating (mustard, wild; Preemergence, 125 g ai/ha) was 0. The Plant response rating (mustard, wild; Preemergence, 250 g ai/ha) was 10, the Plant response rating (foxtail, green; Postemergence, 16 g ai/ha) was 0 and the Plant response rating (foxtail, green; Postemergence, 31 g ai/ha) was 0. The Plant response rating (foxtail, green; Postemergence, 62 g ai/ha) was 0, the Plant response rating (foxtail, green; Postemergence, 125 g ai/ha) was 0 and the Plant response rating (foxtail, green; Postemergence, 250 g ai/ha) was 0. For the same compound, the “Plant response rating, Foxtail, Green” value (foxtail, green; Preemergence, 62 g ai/ha) was 0, the “Plant response rating, Foxtail, Green” value (foxtail, green; Preemergence, 16 g ai/ha) was 0 and the “Plant response rating, Foxtail, Green” value (foxtail, green; Preemergence, 31 g ai/ha) was 0. For the same compound, the Plant response rating (foxtail, green; Preemergence, 125 g ai/ha) was 0, the Plant response rating (foxtail, green; Preemergence, 250 g ai/ha) was 60 and the Plant response rating (barley, winter; Postemergence, 16 g ai/ha) was 0. The Plant response rating (barley, winter; Postemergence, 31 g ai/ha) was 0, the Plant response rating (barley, winter; Postemergence, 62 g ai/ha) was 0 and the Plant response rating (barley, winter; Postemergence, 125 g ai/ha) was 0. For the same compound, the Plant response rating (barley, winter; Postemergence, 250 g ai/ha) was 0, the “Plant response rating, Barley, Winter” value (barley, winter; Preemergence, 62 g ai/ha) was 0 and the “Plant response rating, Barley, Winter” value (barley, winter; Preemergence, 16 g ai/ha) was 0. For the same compound, the “Plant response rating, Barley, Winter” value (barley, winter; Preemergence, 31 g ai/ha) was 0, the Plant response rating (barley, winter; Preemergence, 125 g ai/ha) was 0 and the Plant response rating (barley, winter; Preemergence, 250 g ai/ha) was 25. The Plant response rating (barley, spring; Postemergence, 16 g ai/ha) was 0, the Plant response rating (barley, spring; Postemergence, 31 g ai/ha) was 0 and the Plant response rating (barley, spring; Postemergence, 62 g ai/ha) was 0. For the same compound, the Plant response rating (barley, spring; Postemergence, 125 g ai/ha) was 0, the Plant response rating (barley, spring; Postemergence, 250 g ai/ha) was 0 and the “Plant response rating, Barley, Spring” value (barley, spring; Preemergence, 62 g ai/ha) was 0. The “Plant response rating, Barley, Spring” value (barley, spring; Preemergence, 16 g ai/ha) was 0, the “Plant response rating, Barley, Spring” value (barley, spring; Preemergence, 31 g ai/ha) was 0 and the Plant response rating (barley, spring; Preemergence, 125 g ai/ha) was 0. It also gave a Plant response rating (barley, spring; Preemergence, 250 g ai/ha) of 5.
